Measured values: patent US4620930A, “Process for rapidly determining biological toxicity of wastewater” (priority 1985, dated 1986)
In brackets after ≈: the same amount, converted by molar mass. Where two headings read alike, the source gives them in different places.

Experiments:
[1] = tested on: PHENOBAC bacterial culture; test: microbe, parasite or virus in culture; assay type: cell-based, PHENOBAC mutant bacteria containing Pseudomonas; conditions: for IC50: 20 min, read-out: concentration resulting in an inhibition of the bacteria of about 50%
From the text: In the rapid toxicity test described herein the dried culture first undergoes rehydration and then respiration development when contacted with aqueous system containing organic material.
In carrying out the test process, a preselected amount of the dried bacterial culture is first charged to a preselected amount of a standardized substrate for the purpose of determining a standard of respiration or activity of the culture. […] Typically, the quantity of bacterial culture is selected to give a good rate of oxygen decline, e.g., a decline of 2-5 mg/liter oxygen over a twenty minute interval. For reference purposes from 5 to 15 grams of culture/500 ml. of sample solution will be sufficient. The standardized substrate used in the test procedure is […] or another standardized medium of known composition. […] During this period, this oxygen respiration activity is measured by measuring the dissolved oxygen content in the substrate. The dissolved oxygen content then is plotted as a function of time. The rate of decline of dissolved oxygen content in the substrate is ascertained at some preselected time where the rate of dissolved oxygen decline is substantial and where the residual oxygen in the sample of greater than 0.5 mg/l oxygen. With bacterial cultures of the type described, this preselected time can be within the range of 10 to 30 minutes. […] Although numerous methods can be used to ascertain the rate of decline of oxygen, the simplest is to determine that rate from a graph by taking the slope (y/x) of the curve at the preselected time.
The organic quality of sewage, in terms of organic content or toxic substance, is measured by repeating the exact same process, using the test sample in place of the standardized sample. In many instances, particularly where the test sample contains a substantial amount of toxic material or organic matter, the test sample may be diluted with distilled water to provide a more accurate measurement. This is done in those cases where the slope of the curve is small. In any event, the test substrate or wastewater to be tested is added to the test vessel containing the bacterial culture and the dissolved oxygen content measured as a function of time. The rate of decline in dissolved oxygen content for the test substrate or wastewater is then determined at the same preselected time utilized for the standard. This rate of decline is then compared to the rate of decline for the standardized substrate. The relative toxicity or inhibition of the test water versus the standardized substrate, can then be calculated by the equation: [formula]
A baseline standard was generated for a bacterial formulation sold under the trademark PHENOBAC by Polybac Corporation by first charging 350 ml of distilled water to a first vessel. The water was then saturated with oxygen by sealing the vessel which was half full of air and shaking it rapidly.

[2] = tested on: PHENOBAC bacterial culture; test: microbe, parasite or virus in culture; conditions: Pseudomonas, pH 7, read-out: percent inhibition, with prehydration
Protocol: A baseline standard was generated for a bacterial formulation sold under the trademark PHENOBAC by Polybac Corporation by first charging 350 ml of distilled water to a first vessel. The water was then saturated with oxygen by sealing the vessel which was half full of air and shaking it rapidly. The dissolved oxygen content of the sample was then measured to determine if the oxygen level exceeded 5.0 mg/l at a temperature of 20° C. (If the level was above 5.0 mg/l, it was assumed the sample was sufficiently saturated with oxygen to proceed.) After oxygen saturation, the water was charged to a second vessel containing 8 grams of the dried granular PHENOBAC mutant bacteria containing Pseudomonas and 0.6 grams of potassium bicarbonate. The latter acted to buffer the pH in the vessel to approximately 7. A dissolved oxygen probe was then inserted into the vessel and the contents of the vessel stirred while measuring the dissolved oxygen concentration in the vessel. Several measured data points were recorded in one to two minute intervals for a period of about 30 minutes. These values were plotted with dissolved oxygen in mg/liter represented on the ordinant and time (minute) plotted represented on the abscissa. The baseline standard curves are shown as Curves A and J on FIGS. 1 and 2 respectively.
A series of tests was conducted for the purpose of determining the relative toxicity of various phenolic solutions. The general test technique involved the utilization of test samples containing various known concentrations of toxic material, e.g., phenol. The test sample was buffered to a pH of 7 by the addition of sodium hydroxide or sulphuric acid. Measurement of pH using pH paper was found most convenient. Once the pH of the solution was at the appropriate level, the sample was then aerated by placing the sample in a vessel half full of air, sealing the vessel and shaking the vessel vigorously for several minutes. The oxygen saturated 350 ml. solution having a dissolved oxygen content greater than 5.0 mg/l was then introduced to a test vessel containing 8 grams of dried granular PHENOBAC bacterial culture and 0.5 g of sodium bicarbonate. The dissolved oxygen concentration in the closed sealed vessel was then measured and plotted for a series of phenol concentrations in FIG. 1 in the same manner as the baseline standard in Example 1 and also illustrated in FIG. 1. Each curve, B-G, is labeled with respect to the phenol concentration present during the test. Curve A represents the baseline standard. From these curves one can calculate the rate of decline in dissolved oxygen concentration observed at 20 minutes for each phenol concentration. The percent inhibition is then calculated from the various dissolved oxygen decline curves for each phenol concentration in FIG. 1 according to the equation: [formula]
As in Examples 1 and 2, the general technique for these tests involved pretreatment of the wastewater or test solution to achieve a pH of 7.0 and an oxygen saturation of at least 5.0 mg/l. However, prior to adding the test solution to the test vessel containing the dried PHENOBAC culture, the bacteria were allowed to rehydrate 10 minutes in clean water and then the test solution containing phenol was added to the test vessel. In this manner, the initial rehydration of the bacterial populations was carried out in the absence of the chemical being tested. This is the customary prior art procedure. After rehydration, the bacteria were then exposed to the test chemical and its effect on bacterial respiration evaluated.

[3] = Pseudomonas, pH 7, read-out: percent inhibition, preferred contact rehydration

Row | SMILES | concentration resulting in an inhibition of the bacteria of about 50% ([1]; from FIG. 3, rate of dissolved oxygen decline at 20 minutes versus baseline standard) [mg/L] | IC50 ([1]; Pseudomonas) [µg/mL] | inhibition at 312 µg/mL [1, 3] [%] | inhibition at 625 µg/mL [1, 3] [%] | inhibition at 1250 µg/mL [1, 3] [%] | inhibition at 2500 µg/mL [1, 3] [%] | inhibition at 5000 µg/mL [1, 3] [%] | inhibition at 10000 µg/mL [1, 3] [%] | inhibition or sensitivity of the bacteria, direct contact rehydration compared with prehydration in water ([1]; rehydrated in direct contact with the test phenol solutions rather than in water first) | inhibition at 312 µg/mL [2] [%] | inhibition at 625 µg/mL [2] [%] | inhibition at 1250 µg/mL [2] [%] | inhibition at 2500 µg/mL [2] [%] | inhibition at 5000 µg/mL [2] [%] | inhibition at 10000 µg/mL [2] [%]
1 | [Cu+2] [copper, copper (+2) ion] | 29 |  |  |  |  |  |  |  |  |  |  |  |  |  | 
2 | Oc1ccccc1 [phenol] |  | ~1600 (≈ 17 mM) | 12 | 22 | 37 | 68 | 87 | 98 | greater inhibition or sensitivity | 10 | 17 | 33 | 57 | 80 | 93
3 | C=O [formaldehyde] |  | ~140 (≈ 4.66 mM) |  |  |  |  |  |  |  |  |  |  |  |  | 
